Assay results from US20050154230A1, “Urea derivatives” (Bayer HealthCare AG, priority 2001, published 2005).

Target: T1, human VR1 (Homo sapiens, UniProt Q8NER1)
T1 construct: expressed in transfected cells
Test: Capsaicin-induced Ca2+ influx in the human VR1-transfected CHO cell line (Assay 1)
Assay type: cell-based
Settings: human VR1-CHOluc9aeq cells, 10 nM capsaicin; compound purity about 40 to 90%; read-out: hVR1 class
Protocol: [Measurement of Capsaicin-Induced Ca^2+ Influx in the Human VR1-Transfected CHO Cell Line] (Assay 1)
(1) Establishment of the Human VR1-CHOluc9aeq Cell Line
The cloned hVR1 cDNA was constructed with pcDNA3 vector and transfected into a CHOluc9aeq cell line. The cell line contains aequorin and CRE-luciferase reporter genes as read-out signals. The transfectants were cloned by limiting dilution in selection medium (DMEM/F12 medium (Gibco BRL) supplemented with 10% FCS, 1.4 mM Sodium pyruvate, 20 mM HEPES, 0.15% Sodium bicarbonate, 100 U/ml penicillin, 100 μg/ml streptomycin, 2 mM glutamine, non-essential amino acids and 2 mg/ml G418). Ca^2+ influx was examined in the capsaicin-stimulated clones. […] The human VR1-CHOluc9aeq cells were maintained in the selection medium and passaged every 3-4 days at 1-2.5×10^5 cells/flask ([…]).
(2) Measurement of Ca^2+ Influx Using FDSS-3000
Human VR1-CHOluc9aeq cells were suspended in a culture medium which is the same as the selection medium except for G418 and seeded at a density of 1,000 cells per well into 384-well plates (black walled clear-base/Nalge Nunc International). […] After washing twice with assay buffer the cells were incubated with a test compound or vehicle for 20 min at 25° C. […] Integral R was calculated and compared with controls.

T1 sequence (Q8NER1 whole entry): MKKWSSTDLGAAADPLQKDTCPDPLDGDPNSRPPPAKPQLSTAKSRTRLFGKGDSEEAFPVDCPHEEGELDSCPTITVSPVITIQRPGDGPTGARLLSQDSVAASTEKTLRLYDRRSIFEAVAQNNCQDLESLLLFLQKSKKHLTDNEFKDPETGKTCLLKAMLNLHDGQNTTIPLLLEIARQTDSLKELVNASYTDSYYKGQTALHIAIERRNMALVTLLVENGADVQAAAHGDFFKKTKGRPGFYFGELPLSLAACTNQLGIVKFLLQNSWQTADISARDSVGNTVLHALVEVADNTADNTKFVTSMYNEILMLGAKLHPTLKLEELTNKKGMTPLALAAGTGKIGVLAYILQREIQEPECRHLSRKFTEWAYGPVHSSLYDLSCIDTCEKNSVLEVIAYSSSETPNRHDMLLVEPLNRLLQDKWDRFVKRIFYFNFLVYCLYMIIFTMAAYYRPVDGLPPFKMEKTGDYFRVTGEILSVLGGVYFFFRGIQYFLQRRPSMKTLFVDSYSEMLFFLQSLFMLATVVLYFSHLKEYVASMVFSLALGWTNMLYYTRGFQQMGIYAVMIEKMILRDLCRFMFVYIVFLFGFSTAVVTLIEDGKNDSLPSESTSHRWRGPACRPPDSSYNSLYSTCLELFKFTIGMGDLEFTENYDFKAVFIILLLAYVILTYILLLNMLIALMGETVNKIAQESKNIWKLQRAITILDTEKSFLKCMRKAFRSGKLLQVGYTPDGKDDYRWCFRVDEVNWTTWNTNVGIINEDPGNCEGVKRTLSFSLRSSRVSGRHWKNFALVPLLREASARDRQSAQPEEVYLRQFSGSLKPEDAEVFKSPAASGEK

Structure (SMILES) | IC50
O=C(Nc1cc([N+](=O)[O-])ccc1F)Nc1ccccc1CCO [Example 112] | 500 to 1000 nM
O=C(Nc1ccc(Cl)c([N+](=O)[O-])c1)Nc1ccccc1CCO [Example 113] | 100 to 500 nM
O=C(Nc1ccc(Br)cc1)Nc1ccccc1CCO [Example 114] | 500 to 1000 nM
Cc1cc(C)c(NC(=O)Nc2ccccc2CCO)c(C)c1 [Example 115] | 500 to 1000 nM
Cc1cccc(C)c1NC(=O)Nc1ccccc1CCO [Example 116] | 500 to 1000 nM
CC(=O)c1cccc(NC(=O)Nc2ccccc2CCO)c1 [Example 117] | 500 to 1000 nM
COC(=O)c1ccccc1NC(=O)Nc1ccccc1CCO [Example 118] | 500 to 1000 nM
O=C(NCc1ccccc1F)Nc1ccccc1CCO [Example 119] | 500 to 1000 nM
O=C(NCc1cccc(F)c1)Nc1ccccc1CCO [Example 120] | 500 to 1000 nM
O=C(NCc1ccc(F)cc1)Nc1ccccc1CCO [Example 121] | 500 to 1000 nM
CN(C)c1ccc(NC(=O)Nc2ccccc2CCO)cc1 [Example 122] | 500 to 1000 nM
Cc1ccccc1CNC(=O)Nc1ccccc1CCO [Example 123] | 500 to 1000 nM
Cc1cccc(CNC(=O)Nc2ccccc2CCO)c1 [Example 124] | 500 to 1000 nM
Cc1ccc(CNC(=O)Nc2ccccc2CCO)cc1 [Example 125] | 500 to 1000 nM
O=C(NCc1ccccc1Cl)Nc1ccccc1CCO [Example 126] | 500 to 1000 nM
COc1ccc(CNC(=O)Nc2ccccc2CCO)cc1 [Example 127] | 500 to 1000 nM
Cc1cccc(NC(=O)Nc2ccccc2CCO)c1 [Example 129] | 500 to 1000 nM
O=C(Nc1ccc(F)cc1)Nc1ccccc1CCO [Example 131] | 500 to 1000 nM
O=C(Nc1cccc(F)c1)Nc1ccccc1CCO [Example 132] | 500 to 1000 nM

Structure (SMILES) | IC50
Cc1ccc(NC(=O)Nc2ccccc2CCO)c(C)c1 [Example 133] | 500 to 1000 nM
COc1ccccc1NC(=O)Nc1ccccc1CCO [Example 134] | 500 to 1000 nM
COc1cccc(NC(=O)Nc2ccccc2CCO)c1 [Example 135] | 500 to 1000 nM
COc1ccc(NC(=O)Nc2ccccc2CCO)cc1 [Example 136] | 500 to 1000 nM
O=C(Nc1ccc(F)cc1F)Nc1ccccc1CCO [Example 145] | 500 to 1000 nM
CCOc1ccccc1NC(=O)Nc1ccccc1CCO [Example 146] | 500 to 1000 nM
O=C(Nc1ccccc1CCO)Nc1ccccc1[N+](=O)[O-] [Example 147] | 500 to 1000 nM
Cc1ccc(NC(=O)Nc2ccccc2CCO)cc1Cl [Example 148] | 500 to 1000 nM
O=C(Nc1ccccc1CCO)Nc1cccc2ccccc12 [Example 149] | 500 to 1000 nM
COc1ccc(NC(=O)Nc2ccccc2CCO)c(OC)c1 [Example 150] | 500 to 1000 nM
COc1ccc(OC)c(NC(=O)Nc2ccccc2CCO)c1 [Example 151] | 500 to 1000 nM
O=C(Nc1ccccc1CCO)Nc1ccccc1C(F)(F)F [Example 152] | 500 to 1000 nM
O=C(NCc1ccccc1)Nc1ccccc1CCO [Example 153] | 500 to 1000 nM
O=C(Nc1cc(Cl)nc(Cl)c1)Nc1ccccc1CCO [Example 154] | 500 to 1000 nM
CC(NC(=O)Nc1ccccc1CCO)c1cccc2ccccc12 (stereo not drawn) [Example 155] | 500 to 1000 nM
CSc1ccc(NC(=O)Nc2ccccc2CCO)cc1 [Example 156] | 500 to 1000 nM
O=C(Nc1ccccc1CCO)Nc1ccccc1Cc1ccccc1 [Example 157] | 500 to 1000 nM
O=C(Nc1ccc(Cc2ccccc2)cc1)Nc1ccccc1CCO [Example 158] | 100 to 500 nM
O=C(Nc1ccc(Nc2ccccc2)cc1)Nc1ccccc1CCO [Example 159] | 500 to 1000 nM

Structure (SMILES) | IC50
O=C(Nc1ccccc1CCO)Nc1ccccc1Oc1ccccc1 [Example 160] | 500 to 1000 nM
N#Cc1ccc(-c2ccc(NC(=O)Nc3ccccc3CCO)cc2)cc1 [Example 161] | 500 to 1000 nM
Cc1ccc2ccccc2c1NC(=O)Nc1ccccc1CCO [Example 164] | 500 to 1000 nM
Cc1ccc2cc(NC(=O)Nc3ccccc3CCO)ccc2n1 [Example 165] | 500 to 1000 nM
O=C(Nc1ccccc1CCO)Nc1cccc2ccc(O)cc12 [Example 166] | 500 to 1000 nM
O=C(Nc1ccc(N2CCCCC2)cc1)Nc1ccccc1CCO [Example 168] | 500 to 1000 nM
O=C(Nc1ccc2c(c1)Cc1ccccc1-2)Nc1ccccc1CCO [Example 169] | < 100 nM
O=C(Nc1cccc(Oc2ccccc2)c1)Nc1ccccc1CCO [Example 171] | < 100 nM
CCn1c2ccccc2c2cc(NC(=O)Nc3ccccc3CCO)ccc21 [Example 172] | < 100 nM
COc1ccc(-c2ccccc2)cc1NC(=O)Nc1ccccc1CCO [Example 173] | 100 to 500 nM
O=C(Nc1cccc(OCc2ccccc2)c1)Nc1ccccc1CCO [Example 174] | < 100 nM
Cc1ccccc1Oc1ccccc1NC(=O)Nc1ccccc1CCO [Example 175] | 500 to 1000 nM
Cc1ccc(Oc2ccc(NC(=O)Nc3ccccc3CCO)cc2)cc1 [Example 176] | < 100 nM
O=C(Nc1ccc(F)c(F)c1)Nc1ccccc1CCO [Example 179] | 500 to 1000 nM
O=C(Nc1cc(F)cc(F)c1)Nc1ccccc1CCO [Example 180] | 100 to 500 nM
Cc1ccc(NC(=O)Nc2ccccc2CCO)cc1F [Example 181] | 500 to 1000 nM
O=C(Nc1ccccc1CCO)Nc1cccc(F)c1F [Example 182] | 500 to 1000 nM
O=C(Nc1cc(F)c(F)cc1F)Nc1ccccc1CCO [Example 183] | 500 to 1000 nM
O=C(Nc1ccc(F)c(C(F)(F)F)c1)Nc1ccccc1CCO [Example 184] | < 100 nM

Test system: not given
Test: not given
Settings: not given

Structure (SMILES) | melting point
O=C(Nc1cc([N+](=O)[O-])ccc1F)Nc1ccccc1CCO [Example 112] | 183 °C
O=C(Nc1ccc(Cl)c([N+](=O)[O-])c1)Nc1ccccc1CCO [Example 113] | 170 °C
O=C(Nc1ccc(Br)cc1)Nc1ccccc1CCO [Example 114] | 208 °C
Cc1cc(C)c(NC(=O)Nc2ccccc2CCO)c(C)c1 [Example 115] | 243 °C
Cc1cccc(C)c1NC(=O)Nc1ccccc1CCO [Example 116] | 226 °C
CC(=O)c1cccc(NC(=O)Nc2ccccc2CCO)c1 [Example 117] | 177 °C
COC(=O)c1ccccc1NC(=O)Nc1ccccc1CCO [Example 118] | 128 °C
O=C(NCc1ccccc1F)Nc1ccccc1CCO [Example 119] | 141 to 143 °C
O=C(NCc1cccc(F)c1)Nc1ccccc1CCO [Example 120] | 160 to 162 °C
O=C(NCc1ccc(F)cc1)Nc1ccccc1CCO [Example 121] | 165 to 167 °C
CN(C)c1ccc(NC(=O)Nc2ccccc2CCO)cc1 [Example 122] | 187 to 188 °C
Cc1ccccc1CNC(=O)Nc1ccccc1CCO [Example 123] | 186 to 188 °C
Cc1cccc(CNC(=O)Nc2ccccc2CCO)c1 [Example 124] | 148 to 150 °C
Cc1ccc(CNC(=O)Nc2ccccc2CCO)cc1 [Example 125] | 181 to 183 °C
O=C(NCc1ccccc1Cl)Nc1ccccc1CCO [Example 126] | 183 to 185 °C
COc1ccc(CNC(=O)Nc2ccccc2CCO)cc1 [Example 127] | 175 to 177 °C
Cc1cccc(NC(=O)Nc2ccccc2CCO)c1 [Example 129] | 186 °C
O=C(Nc1ccc(F)cc1)Nc1ccccc1CCO [Example 131] | 183 °C
O=C(Nc1cccc(F)c1)Nc1ccccc1CCO [Example 132] | 166 °C

Structure (SMILES) | melting point
Cc1ccc(NC(=O)Nc2ccccc2CCO)c(C)c1 [Example 133] | 181 °C
COc1ccccc1NC(=O)Nc1ccccc1CCO [Example 134] | 154 °C
COc1cccc(NC(=O)Nc2ccccc2CCO)c1 [Example 135] | 169 °C
COc1ccc(NC(=O)Nc2ccccc2CCO)cc1 [Example 136] | 186 °C
O=C(Nc1ccc(F)cc1F)Nc1ccccc1CCO [Example 145] | 174 to 176 °C (dec.)
CCOc1ccccc1NC(=O)Nc1ccccc1CCO [Example 146] | 112 to 114 °C (dec.)
O=C(Nc1ccccc1CCO)Nc1ccccc1[N+](=O)[O-] [Example 147] | 112 to 114 °C
Cc1ccc(NC(=O)Nc2ccccc2CCO)cc1Cl [Example 148] | 195 to 196 °C
O=C(Nc1ccccc1CCO)Nc1cccc2ccccc12 [Example 149] | 188 to 191 °C (dec.)
COc1ccc(NC(=O)Nc2ccccc2CCO)c(OC)c1 [Example 150] | 189 to 190 °C
COc1ccc(OC)c(NC(=O)Nc2ccccc2CCO)c1 [Example 151] | 157 to 158 °C
O=C(Nc1ccccc1CCO)Nc1ccccc1C(F)(F)F [Example 152] | 180 to 182 °C
O=C(NCc1ccccc1)Nc1ccccc1CCO [Example 153] | 149 to 150 °C
O=C(Nc1cc(Cl)nc(Cl)c1)Nc1ccccc1CCO [Example 154] | 194 °C
CC(NC(=O)Nc1ccccc1CCO)c1cccc2ccccc12 (stereo not drawn) [Example 155] | 176 °C
CSc1ccc(NC(=O)Nc2ccccc2CCO)cc1 [Example 156] | 176 to 177 °C
O=C(Nc1ccccc1CCO)Nc1ccccc1Cc1ccccc1 [Example 157] | 162 to 164 °C
O=C(Nc1ccc(Cc2ccccc2)cc1)Nc1ccccc1CCO [Example 158] | 164 to 166 °C
O=C(Nc1ccc(Nc2ccccc2)cc1)Nc1ccccc1CCO [Example 159] | 150 to 151 °C

Structure (SMILES) | melting point
O=C(Nc1ccccc1CCO)Nc1ccccc1Oc1ccccc1 [Example 160] | 190 to 191 °C
N#Cc1ccc(-c2ccc(NC(=O)Nc3ccccc3CCO)cc2)cc1 [Example 161] | 213 to 215 °C
Cc1ccc2ccccc2c1NC(=O)Nc1ccccc1CCO [Example 164] | 204 °C
Cc1ccc2cc(NC(=O)Nc3ccccc3CCO)ccc2n1 [Example 165] | 207 °C
O=C(Nc1ccccc1CCO)Nc1cccc2ccc(O)cc12 [Example 166] | 212 °C
O=C(Nc1ccc(N2CCCCC2)cc1)Nc1ccccc1CCO [Example 168] | 188 °C
O=C(Nc1ccc2c(c1)Cc1ccccc1-2)Nc1ccccc1CCO [Example 169] | > 250 °C
O=C(Nc1cccc(Oc2ccccc2)c1)Nc1ccccc1CCO [Example 171] | 145 to 146 °C
CCn1c2ccccc2c2cc(NC(=O)Nc3ccccc3CCO)ccc21 [Example 172] | 224 to 226 °C
COc1ccc(-c2ccccc2)cc1NC(=O)Nc1ccccc1CCO [Example 173] | 178 to 180 °C
O=C(Nc1cccc(OCc2ccccc2)c1)Nc1ccccc1CCO [Example 174] | 146 to 148 °C
Cc1ccccc1Oc1ccccc1NC(=O)Nc1ccccc1CCO [Example 175] | 170 to 172 °C
Cc1ccc(Oc2ccc(NC(=O)Nc3ccccc3CCO)cc2)cc1 [Example 176] | 164 to 168 °C (dec.)
O=C(Nc1ccc(F)c(F)c1)Nc1ccccc1CCO [Example 179] | 162 to 164 °C
O=C(Nc1cc(F)cc(F)c1)Nc1ccccc1CCO [Example 180] | 188 to 189 °C
Cc1ccc(NC(=O)Nc2ccccc2CCO)cc1F [Example 181] | 184 to 186 °C
O=C(Nc1ccccc1CCO)Nc1cccc(F)c1F [Example 182] | 159 to 161 °C
O=C(Nc1cc(F)c(F)cc1F)Nc1ccccc1CCO [Example 183] | 172 to 174 °C
O=C(Nc1ccc(F)c(C(F)(F)F)c1)Nc1ccccc1CCO [Example 184] | 158 to 161 °C (dec.)
